Experimental data: patent US20240217951A1, “PCSK9 INHIBITORS AND METHODS OF USE THEREOF” (AstraZeneca AB, priority 2022, published 2024)

Legend:
[1] = molecular target: T1, human PCSK9 (Homo sapiens, UniProt Q8NBP7); assay: Assay 2 - Biophysical human PCSK9 assay (SPR, Biacore); type: binding; conditions: geometric mean; SPR at 30° C; read-out: Assay 2 (PCSK9 BIAcore DBA CR) GMean Kd
T1 construct: biotinylated human PCSK9 (31-692)-Avi-His6; His6 (C)
Procedure: Assay 2—Biophysical Human PCSK9 Assay
The SPR binding experiments were performed on a Biacore S200 optical biosensor unit at 30° C. A Series S Sensor Chip SA that is designed to bind biotinylated molecules for interaction analysis in Biacore systems was equilibrated at room temperature prior to use. The running buffer for protein tethering and subsequent ligand binding experiments was 10 mM HEPES pH 7.4, 150 mM NaCl, 0.05% (v/v) Tween 20 pH 7.4.
For the surface tethering of PCSK9, biotinylated human PCSK9 (31-692)-Avi-His6 at a concentration of 0.5 mg/mL was used. Prior to the surface tethering, the surface was exposed to a solution of 50 mM NaOH, 500 mM NaCl via 3 consecutive injections of this solution with a contact time of 60 s and a flowrate of 10 μL min^−1 to remove non-conjugated streptavidin. The PCSK9 protein was diluted to a concentration of 20 μg/mL using running buffer and injected with a contact time of 180-300 s and a flowrate of 10 μL min^−1 over a single flow channel (typically flow channel 2 or flow channel 4) with the aim to achieve protein capture levels of >5000 response units (RU). Remaining biotin binding sites were blocked via 2 consecutive injections of a 10 μM D-biotin solution in running buffer with a contact time of 60 s and a flowrate of 10 μL min^−1 over all flow-channels. Flow-channels 1 and 3 typically served as a reference surface throughout the subsequent binding experiments.
The binding experiments were all performed at a flow rate of 30 PL min^−1 and by employing the method of single-cycle kinetics. This approach involves the sequential injection of a compound concentration series without regeneration steps. A contact time between 90-150 s was selected, which was followed by a 40 min dissociation phase to allow for a proper estimation of the dissociation rate constant. Test compounds were delivered in DMSO at a concentration of 10 mM and a digital dispenser HP D300 was used to set up the compound concentration series using 6 concentrations. The tested concentrations have been 30, 100, 300, 1000, 3000 and 10000 nM. Prior to injecting any compound, the surfaces were equilibrated by injecting running buffer over them in three separate pulses. The data collection rate was set to 10 Hz.
The raw sensorgrams of the compound injections were first subjected to reference subtraction (subtracting the signal from flow channel 1 and/or 3 from the signal from channels 2 and/or 4 respectively) and then blank subtraction (subtracting the signal from injecting DMSO controls from the reference subtracted data). The resulting double-referenced sensorgrams were then fitted using a 1:1 binding interaction model using the manufactures software package to extract kinetic- and affinity data. Active compounds have been defined by creating a detectable binding signal at the highest compound concentration ([…]) of 3 RUs. Kinetic- and affinity data on active compounds are only provided for those compounds where the binding signal at the highest compound concentration ([…]) is 50% of the theoretical maximum binding signal for a 1:1 binding interaction (Rmax, typically between 15-20 RUs) in order to enable a proper fitting of the data.

[2] = molecular target: T2, hERG potassium ion channel (Homo sapiens, UniProt Q12809); assay: Assay 5 - hERG assay (SyncroPatch 384PE patch clamp, CHO cells); type: cell-based; conditions: human, CHO-K1 cells over-expressing hERG, pH 7.4, geometric mean, read-out: Assay 5 (hERG Hu CHO IF EPh CR-Syncro) GMean IC50
T2 construct: expressed in transfected cells; host or cells: Chinese hamster ovary K1 (CHO)
T2 sequence (Q12809 whole entry): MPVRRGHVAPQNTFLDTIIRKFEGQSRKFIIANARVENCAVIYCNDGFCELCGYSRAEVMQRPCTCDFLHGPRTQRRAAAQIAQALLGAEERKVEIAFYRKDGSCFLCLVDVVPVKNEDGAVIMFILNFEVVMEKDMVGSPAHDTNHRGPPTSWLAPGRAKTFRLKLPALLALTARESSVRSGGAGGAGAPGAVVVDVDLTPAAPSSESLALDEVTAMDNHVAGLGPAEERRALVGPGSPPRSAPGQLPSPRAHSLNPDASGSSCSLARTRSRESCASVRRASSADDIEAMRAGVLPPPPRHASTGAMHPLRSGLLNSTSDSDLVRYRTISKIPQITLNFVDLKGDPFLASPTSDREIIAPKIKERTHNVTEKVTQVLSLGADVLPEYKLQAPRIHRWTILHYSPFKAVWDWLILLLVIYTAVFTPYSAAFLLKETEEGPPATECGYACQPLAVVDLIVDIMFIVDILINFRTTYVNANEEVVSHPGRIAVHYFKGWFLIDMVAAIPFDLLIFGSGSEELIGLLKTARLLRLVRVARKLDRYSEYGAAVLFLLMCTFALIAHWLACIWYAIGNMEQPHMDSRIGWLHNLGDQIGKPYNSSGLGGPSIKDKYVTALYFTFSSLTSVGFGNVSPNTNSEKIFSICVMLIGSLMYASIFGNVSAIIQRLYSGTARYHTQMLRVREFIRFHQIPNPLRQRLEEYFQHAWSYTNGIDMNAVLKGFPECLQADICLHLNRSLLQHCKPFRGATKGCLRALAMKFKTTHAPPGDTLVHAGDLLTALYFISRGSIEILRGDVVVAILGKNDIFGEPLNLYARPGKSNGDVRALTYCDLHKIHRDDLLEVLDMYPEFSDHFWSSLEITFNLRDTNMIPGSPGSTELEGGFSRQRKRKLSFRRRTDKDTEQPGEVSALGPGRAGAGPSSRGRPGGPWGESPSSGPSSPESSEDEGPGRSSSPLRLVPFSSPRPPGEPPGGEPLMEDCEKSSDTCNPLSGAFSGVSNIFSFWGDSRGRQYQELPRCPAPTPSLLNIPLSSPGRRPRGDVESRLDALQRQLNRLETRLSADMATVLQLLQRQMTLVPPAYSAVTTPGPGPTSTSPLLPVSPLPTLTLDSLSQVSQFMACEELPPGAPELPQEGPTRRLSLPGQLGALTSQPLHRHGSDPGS
Procedure, shortened: (§1)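 Automated high-throughput patch clamp on CHO-K1 cells overexpressing hERG at room temperature, KF/KCl internal with escin, NMDG-containing external at pH 7.4. Six-point cumulative compound addition, 0.33% DMSO final; wells kept only with seal >30 MΩ, Z′ >0.4 and current >0.2 nA.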

[3] = molecular target: GSK3β (Glycogen synthase kinase-3 beta) (Homo sapiens, UniProt P49841); assay: Assay 6 - GSK3β assay (ThermoFisher Z-Lyte); type: biochemical; conditions: geometric mean; ATP Conc: 10 μM; read-out: Assay 6 (GSK3β FRET-Z-Lyte CR) GMean IC50 (μM) ATP Conc: 10
Sequence of GSK3β (Glycogen synthase kinase-3 beta) (P49841 whole entry): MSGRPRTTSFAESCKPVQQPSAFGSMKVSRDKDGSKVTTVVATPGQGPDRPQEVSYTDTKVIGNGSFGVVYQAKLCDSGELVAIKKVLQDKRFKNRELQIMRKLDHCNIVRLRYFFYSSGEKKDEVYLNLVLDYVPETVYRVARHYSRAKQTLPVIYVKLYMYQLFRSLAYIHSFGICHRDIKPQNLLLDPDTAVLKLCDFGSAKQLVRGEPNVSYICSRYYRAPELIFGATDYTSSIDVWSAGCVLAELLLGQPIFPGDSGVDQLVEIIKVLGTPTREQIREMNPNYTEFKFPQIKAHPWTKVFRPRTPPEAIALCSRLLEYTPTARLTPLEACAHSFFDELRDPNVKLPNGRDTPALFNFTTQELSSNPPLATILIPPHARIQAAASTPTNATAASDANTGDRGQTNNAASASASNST
Procedure, shortened: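 Z-Lyte fluorescence kinase assay with 0.22-0.92 ng GSK3β and 2 μM Ser/Thr 09 peptide in 50 mM HEPES pH 7.5, 10 mM MgCl2, 1 mM EGTA, 0.01% BRIJ-35. Kinase reaction 60 min at room temperature, then 60 min development. 10-point 3-fold titration from 10 μM in 1% DMSO, fitted to a sigmoidal dose-response curve.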

[4] = molecular target: PCSK9 (Homo sapiens, UniProt Q8NBP7, G670E/V474I); assay: biochemical
Sequence of PCSK9 (Q8NBP7 with tags, fused parts or gaps V474I/G670E): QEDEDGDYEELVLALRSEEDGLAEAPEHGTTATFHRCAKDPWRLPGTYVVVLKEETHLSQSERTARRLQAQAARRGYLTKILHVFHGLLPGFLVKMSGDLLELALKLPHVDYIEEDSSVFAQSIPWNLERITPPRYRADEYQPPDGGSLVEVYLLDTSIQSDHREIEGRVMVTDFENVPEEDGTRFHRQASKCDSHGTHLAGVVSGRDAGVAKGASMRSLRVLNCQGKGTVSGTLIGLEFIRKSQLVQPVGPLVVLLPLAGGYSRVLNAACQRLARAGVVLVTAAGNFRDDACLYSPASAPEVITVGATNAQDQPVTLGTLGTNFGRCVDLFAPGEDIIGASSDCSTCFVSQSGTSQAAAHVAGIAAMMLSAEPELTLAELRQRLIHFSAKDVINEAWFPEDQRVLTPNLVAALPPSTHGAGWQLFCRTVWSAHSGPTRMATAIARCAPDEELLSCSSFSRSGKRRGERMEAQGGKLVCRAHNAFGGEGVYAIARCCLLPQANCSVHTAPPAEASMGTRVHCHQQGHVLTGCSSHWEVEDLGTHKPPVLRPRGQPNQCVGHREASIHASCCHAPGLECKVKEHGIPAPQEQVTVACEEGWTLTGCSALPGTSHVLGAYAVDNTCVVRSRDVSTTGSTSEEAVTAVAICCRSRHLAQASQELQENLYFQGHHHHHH

[5] = molecular target: T3, potassium ion channel hERG (human Ether-á-go-go-Related Gene) (Homo sapiens, UniProt Q12809); assay: Assay 5 - hERG assay (SyncroPatch 384PE patch clamp, CHO cells); type: cell-based; conditions: geometric mean; CHO cells over-expressing hERG; read-out: Assay 5 (hERG Hu CHO IF EPh CR-Syncro) GMean IC50
T3 construct: expressed in transfected cells; host or cells: Chinese hamster ovary K1 (CHO)
T3 sequence (Q12809 whole entry): as the sequence (Q12809 whole entry) above
Procedure, shortened: as §1

[6] = clinical trials, patients; alirocumab compared to placebo; cited from earlier work

T1 sequence (Q8NBP7 31-692): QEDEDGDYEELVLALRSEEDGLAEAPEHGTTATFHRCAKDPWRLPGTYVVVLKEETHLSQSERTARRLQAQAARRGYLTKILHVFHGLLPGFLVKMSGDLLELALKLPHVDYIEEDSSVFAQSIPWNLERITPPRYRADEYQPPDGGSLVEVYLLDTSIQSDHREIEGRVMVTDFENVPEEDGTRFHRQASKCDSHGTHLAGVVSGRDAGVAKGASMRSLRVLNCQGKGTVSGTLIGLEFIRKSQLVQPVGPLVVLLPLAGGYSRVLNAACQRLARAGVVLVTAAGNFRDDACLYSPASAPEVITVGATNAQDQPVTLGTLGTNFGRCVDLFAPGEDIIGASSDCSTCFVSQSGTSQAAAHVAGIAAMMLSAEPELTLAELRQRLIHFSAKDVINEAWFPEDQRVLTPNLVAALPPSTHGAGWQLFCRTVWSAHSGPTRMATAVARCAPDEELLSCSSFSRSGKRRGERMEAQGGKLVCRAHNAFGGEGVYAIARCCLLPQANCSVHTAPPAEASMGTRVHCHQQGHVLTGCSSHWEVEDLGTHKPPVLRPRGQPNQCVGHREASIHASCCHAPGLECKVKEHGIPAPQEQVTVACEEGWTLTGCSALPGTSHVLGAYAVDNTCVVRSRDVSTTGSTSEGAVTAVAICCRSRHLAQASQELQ

Cc1nc(N[C@H]2CC[C@H](Nc3cnc(OC(F)F)cn3)C2)ccc1-n1ccccc1=O [Example 97, 6′-(((1S,3S)-3-((5-(Difluoromethoxy)pyrazin-2-yl)amino)cyclopentyl)amino)-2′-methyl-2H-[1,3′-bipyridin]-2-one]
Kd [1]: 26 nM | IC50 [2]: 35.4 µM | IC50 [3]: > 10 µM | IC50 [4]: 63 nM

COc1cccc2ncc(N[C@H]3CC[C@H](Nc4ccc(-n5ccccc5=O)cn4)C3)nc12 [Example 144, 6′-(((1S,3S)-3-((8-Methoxyquinoxalin-2-yl)amino)cyclopentyl)amino)-2H-[1,3′-bipyridin]-2-one]
Kd [1]: 336 nM | IC50 [5]: > 35 µM | IC50 [3]: 2.34 µM | IC50 [4]: 484 nM

O=C(O)[C@@H]1CCC(=O)N1c1ccc(N[C@H]2CC[C@H](Nc3cnc(OC(F)F)cn3)C2)nc1 [Example 79, (S)-1-(6-(((1S,3S)-3-((5-(Difluoromethoxy)pyrazin-2-yl)amino)cyclopentyl)amino)pyridin-3-yl)-5-oxopyrrolidine-2-carboxylic acid]
Kd [1]: 422 nM | IC50 [5]: > 40 µM | IC50 [3]: > 10 µM | IC50 [4]: 827 nM

Cc1cnc(N[C@H]2CC[C@H](Nc3ccc(-n4ccccc4=O)cn3)C2)cn1 [Example 4, 6′-(((1S,3S)-3-((5-Methylpyrazin-2-yl)amino)cyclopentyl)amino)-2H-[1,3′-bipyridin]-2-one]
Kd [1]: 81 nM | IC50 [5]: > 40 µM | IC50 [3]: > 10 µM | IC50 [4]: 104 nM

alirocumab
decrease in LDL levels [6]: about 50%

O=c1ccccn1-c1ccc(N[C@H]2CC[C@H](Nc3cnc4cccnc4n3)C2)nc1 [Example 143, 6′-(((1S,3S)-3-(Pyrido[2,3-b]pyrazin-3-ylamino)cyclopentyl)amino)-2H-[1,3′-bipyridin]-2-one]
Kd [1]: 1540 nM | IC50 [5]: > 40 µM | IC50 [3]: > 10 µM | IC50 [4]: 2390 nM

CN1C(=O)CN(c2ccc(N[C@H]3CC[C@H](Nc4cnc(OC(F)F)cn4)C3)nc2)C1=O [Example 92, 1-(6-(((1S,3S)-3-((5-(Difluoromethoxy)pyrazin-2-yl)amino)cyclopentyl)amino)pyridin-3-yl)-3-methylimidazolidine-2,4-dione]
Kd [1]: 52 nM | IC50 [5]: 4.4 µM | IC50 [3]: > 10 µM | IC50 [4]: 59 nM

Cc1nc(N[C@H]2CC[C@H](Nc3ccc(-n4ccccc4=O)cn3)C2)cnc1Cl [Example 102, 6′-(((1S,3S)-3-((5-Chloro-6-methylpyrazin-2-yl)amino)cyclopentyl)amino)-2H-[1,3′-bipyridin]-2-one]
Kd [1]: 122 nM | IC50 [5]: 17.7 µM | IC50 [3]: > 10 µM | IC50 [4]: 85 nM
